Experiments:
[1] = Storage Stability Test (Deliquescence); assay type: physicochemical; settings: stored at 40° C. and 75% relative humidity; up to 2 months
Experimental: The hemifumarate dihydrate of Example 1, the ¾ fumarate dihydrate of Comparative Example 1 and the above compound (B) were stored under a condition of 40° C. and 75% relative humidity, and existence or nonexistence of the deliquescence was examined.

[2] = Storage Stability Test (Purity), purity by HPLC and appearance after storage; assay type: physicochemical; settings: for Purity (%) after 2 months / Purity (%) at initial point: HPLC
Experimental: The hemifumarate dihydrate of Example 1 and the above compound (B) each were stored under a condition of 40° C. and 75% relative humidity and 60° C. in open vessels, and the storage stability for 2 months was examined. […] Measurement conditions of HPLC are as follows.
Detector: ultraviolet-visible absorption spectrophotometer, wavelength: 225 nm
Column: LUNA C18(2) (produced by Phenomenex), 5 μm, 4.6×250 mm, particle diameter 100×10^−10 m
Column Temperature: a constant temperature of around 25° C.
Sample concentration: 1 mg/mL
Mobile phase A: 10 mM dipotassium hydrogenphosphate aqueous solution adjusted to pH 7.8 with phosphoric acid
Mobile phase B: acetonitrile
Gradient of concentration:
0 minute: Mobile phase B=22%
30 minutes: Mobile phase B=22%
50 minutes: Mobile phase B=70%
60 minutes: Mobile phase B=70%
Range of area measurement: for 50 minutes from the start of analysis, except for the areas of the peak of fumaric acid (retention time 2 minutes), the peak of diethyl fumarate which is an impurity (retention time around 44 minutes) and the peak of the blank solution.

[3] = storage condition 40° C. and 75% relative humidity
[4] = storage condition 60° C. in open vessels

| SMILES | existence or nonexistence of the deliquescence [1] | Purity (%) after 2 months [2, 3] | Purity (%) at initial point [2, 3] | Appearance after 2 months [2, 4] | Purity (%) after 2 months [2, 4] | Appearance at initial point [2, 4] | Purity (%) at initial point [2, 4] |
| --- | --- | --- | --- | --- | --- | --- | --- |
| Cc1cc(OCCCNCC(C)(C)C(N)=O)ccc1Cc1c(O[C@@H]2O[C@H](CO)[C@@H](O)[C@H](O)[C@H]2O)n[nH]c1C(C)C.O.O.O=C(O)/C=C/C(=O)O [Comparative Example 1, 3-(3-{4-[3-(β-D-Glucopyanosyloxy)-5-isopropyl-1H-pyazol-4-ylmethyl]-3-methyl-phenoxy}propylamino)-2,2-dimethylpropionamide ¾ fumarate dihydrate] | deliquescence was observed from the initial point of the experiment |  |  |  |  |  |  |
| Cc1cc(OCCCNCC(C)(C)C(N)=O)ccc1Cc1c(O[C@@H]2O[C@H](CO)[C@@H](O)[C@H](O)[C@H]2O)n[nH]c1C(C)C.O=C(O)/C=C/C(=O)O [Example 1, 3-(3-{4-[3-(β-D-Glucopyranosyloxy)-5-isopropyl-1H-pyrazol-4-ylmethyl]-3-methylphenoxy}propylamino)-2,2-dimethylpropionamide hemifumarate dihydrate] | no deliquescence during 2 months | 99.6% | 99.5% | White | 99.0% | White | 99.5% |
| Cc1cc(OCCCNCC(C)(C)C(N)=O)ccc1Cc1c(O[C@@H]2OC(CO)[C@@H](O)C(O)C2O)n[nH]c1C(C)C (stereo partly drawn) [compound (B), 3-(3-{4-[3-(β-D-Glucopyanosyloxy)-5-isopropyl-1H-pyazol-4-ylmethyl]-3-methylphenoxy}propylamino)-2,2-dimethylpropionamide] | deliquescence was observed from the initial point of the experiment | 97.0% | 98.7% | Brown | 95.3% | White | 98.7% |
